Key:
[1] = biological target: Cyclin-dependent kinase 17 (Homo sapiens) (UniProt Q00537); experiment: Selectivity interaction (Kinase panel (KiNativ target engagement assay in Jurkat cells)) EUB0001635a CDK17; format: cell-based; conditions: Selectivity number of off-targets 0.0, Selectivity number of targets 233.0, Source Knowledge https://www.sciencedirect.com/science/article/pii/S2451945619300674?via%3Dihub, at 1 µM
[2] = biological target: T1, Inhibitor of nuclear factor kappa-B kinase subunit epsilon (Homo sapiens) (UniProt Q14164); conditions: at 10 µM
T1 sequence (whole entry): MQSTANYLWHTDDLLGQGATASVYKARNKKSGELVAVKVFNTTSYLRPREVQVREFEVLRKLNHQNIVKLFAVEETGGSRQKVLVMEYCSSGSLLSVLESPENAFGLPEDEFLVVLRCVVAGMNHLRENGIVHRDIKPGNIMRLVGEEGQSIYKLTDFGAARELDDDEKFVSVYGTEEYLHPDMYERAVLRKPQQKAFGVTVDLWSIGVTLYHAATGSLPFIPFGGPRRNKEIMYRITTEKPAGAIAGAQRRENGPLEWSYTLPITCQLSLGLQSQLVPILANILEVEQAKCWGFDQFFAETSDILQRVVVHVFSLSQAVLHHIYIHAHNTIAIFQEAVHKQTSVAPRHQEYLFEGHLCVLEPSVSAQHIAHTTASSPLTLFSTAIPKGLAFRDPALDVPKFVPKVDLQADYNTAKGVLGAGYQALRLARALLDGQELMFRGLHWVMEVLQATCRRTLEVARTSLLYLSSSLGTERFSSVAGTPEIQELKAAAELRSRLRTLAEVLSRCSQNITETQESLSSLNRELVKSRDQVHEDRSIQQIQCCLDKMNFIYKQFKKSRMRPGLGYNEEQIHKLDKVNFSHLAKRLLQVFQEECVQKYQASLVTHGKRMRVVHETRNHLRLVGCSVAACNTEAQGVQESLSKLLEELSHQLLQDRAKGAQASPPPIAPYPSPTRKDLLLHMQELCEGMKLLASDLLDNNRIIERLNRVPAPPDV

[3] = biological target: T2, Mitogen-activated protein kinase kinase kinase 2 (Homo sapiens) (UniProt Q9Y2U5); experiment: Selectivity interaction (ActivX KiNativ screen (kinase selectivity in THP-1 cell lysates)) EUB0000639a MAP3K2; format: subcellular; conditions: lysate, at 1 µM
T2 sequence (whole entry): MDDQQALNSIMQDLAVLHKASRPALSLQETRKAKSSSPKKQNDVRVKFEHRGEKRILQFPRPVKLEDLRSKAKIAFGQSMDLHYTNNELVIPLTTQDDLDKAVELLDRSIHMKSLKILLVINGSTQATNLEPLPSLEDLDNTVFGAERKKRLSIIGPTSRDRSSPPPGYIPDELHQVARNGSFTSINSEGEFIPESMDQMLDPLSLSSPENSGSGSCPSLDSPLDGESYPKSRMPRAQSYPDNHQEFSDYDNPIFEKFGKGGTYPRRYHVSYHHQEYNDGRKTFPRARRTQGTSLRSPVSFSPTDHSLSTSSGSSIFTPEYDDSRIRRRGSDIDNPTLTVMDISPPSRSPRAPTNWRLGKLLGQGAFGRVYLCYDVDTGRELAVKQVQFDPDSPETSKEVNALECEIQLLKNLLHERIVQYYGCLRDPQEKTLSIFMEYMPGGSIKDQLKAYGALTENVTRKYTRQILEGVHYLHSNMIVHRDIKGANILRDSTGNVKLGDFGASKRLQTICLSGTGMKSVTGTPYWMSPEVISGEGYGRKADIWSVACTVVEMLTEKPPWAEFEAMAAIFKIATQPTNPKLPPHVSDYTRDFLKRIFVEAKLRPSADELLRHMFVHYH

[4] = biological target: Aurora kinase B (Homo sapiens, UniProt Q96GD4); experiment: Selectivity interaction (ActivX KiNativ screen (kinase selectivity in THP-1 cell lysates)) EUB0000639a AURKB; format: subcellular; conditions: lysate, at 5 µM
Chain of Aurora kinase B (Q96GD4 whole entry): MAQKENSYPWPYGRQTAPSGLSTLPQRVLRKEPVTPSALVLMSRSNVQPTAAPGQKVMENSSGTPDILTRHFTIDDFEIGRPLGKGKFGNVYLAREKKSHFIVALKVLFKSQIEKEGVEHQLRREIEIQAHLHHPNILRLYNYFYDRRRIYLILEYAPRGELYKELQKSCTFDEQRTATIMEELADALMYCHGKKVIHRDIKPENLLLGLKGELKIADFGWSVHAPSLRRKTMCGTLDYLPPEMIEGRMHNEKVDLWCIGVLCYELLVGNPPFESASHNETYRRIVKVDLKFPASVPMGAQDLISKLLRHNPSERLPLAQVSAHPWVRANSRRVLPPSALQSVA

[5] = biological target: Tyrosine-protein kinase Lck (Homo sapiens, UniProt P06239); experiment: Selectivity interaction (KinomeScan (DiscoverX)) EUB0001049a LCK; conditions: at 1 µM
Chain of Tyrosine-protein kinase Lck (P06239 2-509 limits assumed): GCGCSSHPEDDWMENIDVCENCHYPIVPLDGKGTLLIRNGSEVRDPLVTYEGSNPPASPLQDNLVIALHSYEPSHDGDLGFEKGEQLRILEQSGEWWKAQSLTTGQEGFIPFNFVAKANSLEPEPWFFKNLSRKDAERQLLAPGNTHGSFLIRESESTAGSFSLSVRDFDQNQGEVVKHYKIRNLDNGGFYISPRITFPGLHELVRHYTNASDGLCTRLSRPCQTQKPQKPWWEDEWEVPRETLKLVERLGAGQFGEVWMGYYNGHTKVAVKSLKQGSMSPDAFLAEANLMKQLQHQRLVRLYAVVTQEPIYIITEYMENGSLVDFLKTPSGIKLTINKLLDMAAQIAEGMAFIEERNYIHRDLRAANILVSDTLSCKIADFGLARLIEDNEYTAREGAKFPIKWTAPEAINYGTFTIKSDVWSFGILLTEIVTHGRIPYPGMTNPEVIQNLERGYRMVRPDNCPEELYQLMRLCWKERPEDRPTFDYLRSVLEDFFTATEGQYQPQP

[6] = biological target: MAP kinase-interacting serine/threonine-protein kinase 1 (Homo sapiens) (UniProt Q9BUB5); experiment: Selectivity interaction (KinomeScan (DiscoverX)) EUB0000695a MKNK1; conditions: at 100 nM
Chain of MAP kinase-interacting serine/threonine-protein kinase 1 (Homo sapiens) (Q9BUB5 whole entry, looked up): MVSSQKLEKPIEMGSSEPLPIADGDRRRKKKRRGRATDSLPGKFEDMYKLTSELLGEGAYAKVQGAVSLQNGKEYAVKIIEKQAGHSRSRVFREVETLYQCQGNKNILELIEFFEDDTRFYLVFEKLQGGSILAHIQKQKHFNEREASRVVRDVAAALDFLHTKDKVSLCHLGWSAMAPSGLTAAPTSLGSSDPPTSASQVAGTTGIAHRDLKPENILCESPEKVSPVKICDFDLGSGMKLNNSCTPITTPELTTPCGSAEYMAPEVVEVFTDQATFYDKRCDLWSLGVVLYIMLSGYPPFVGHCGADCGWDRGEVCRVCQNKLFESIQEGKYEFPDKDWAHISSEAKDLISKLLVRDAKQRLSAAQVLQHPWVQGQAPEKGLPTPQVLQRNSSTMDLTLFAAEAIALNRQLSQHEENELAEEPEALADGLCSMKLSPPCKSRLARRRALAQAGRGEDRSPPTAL

[7] = biological target: Calcium/calmodulin-dependent protein kinase type II subunit gamma (Homo sapiens) (UniProt Q13555); experiment: Selectivity interaction (KinomeScan (DiscoverX)) EUB0000595a CAMK2G; conditions: at 10 µM
Chain of Calcium/calmodulin-dependent protein kinase type II subunit gamma (Homo sapiens) (Q13555 whole entry): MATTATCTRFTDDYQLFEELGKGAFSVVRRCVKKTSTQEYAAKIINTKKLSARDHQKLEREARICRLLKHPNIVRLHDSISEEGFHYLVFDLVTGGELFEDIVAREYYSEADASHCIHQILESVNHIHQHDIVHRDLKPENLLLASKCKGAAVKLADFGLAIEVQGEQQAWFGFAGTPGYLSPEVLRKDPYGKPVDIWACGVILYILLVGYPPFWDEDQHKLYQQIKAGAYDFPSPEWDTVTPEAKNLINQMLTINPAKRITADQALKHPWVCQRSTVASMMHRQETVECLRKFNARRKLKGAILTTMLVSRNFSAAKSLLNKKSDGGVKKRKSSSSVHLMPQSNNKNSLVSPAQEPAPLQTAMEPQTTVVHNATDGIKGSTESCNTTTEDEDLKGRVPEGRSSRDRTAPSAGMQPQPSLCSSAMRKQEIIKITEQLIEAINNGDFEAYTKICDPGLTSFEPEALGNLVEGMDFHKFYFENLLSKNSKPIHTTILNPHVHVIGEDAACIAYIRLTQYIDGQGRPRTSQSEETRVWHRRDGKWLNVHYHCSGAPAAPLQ

[8] = biological target: T3, Membrane-associated tyrosine- and threonine-specific cdc2-inhibitory kinase (Homo sapiens) (UniProt Q99640); experiment: Selectivity interaction (KinomeScan (DiscoverX)) EUB0000618a PKMYT1; conditions: at 10 µM
T3 sequence (whole entry): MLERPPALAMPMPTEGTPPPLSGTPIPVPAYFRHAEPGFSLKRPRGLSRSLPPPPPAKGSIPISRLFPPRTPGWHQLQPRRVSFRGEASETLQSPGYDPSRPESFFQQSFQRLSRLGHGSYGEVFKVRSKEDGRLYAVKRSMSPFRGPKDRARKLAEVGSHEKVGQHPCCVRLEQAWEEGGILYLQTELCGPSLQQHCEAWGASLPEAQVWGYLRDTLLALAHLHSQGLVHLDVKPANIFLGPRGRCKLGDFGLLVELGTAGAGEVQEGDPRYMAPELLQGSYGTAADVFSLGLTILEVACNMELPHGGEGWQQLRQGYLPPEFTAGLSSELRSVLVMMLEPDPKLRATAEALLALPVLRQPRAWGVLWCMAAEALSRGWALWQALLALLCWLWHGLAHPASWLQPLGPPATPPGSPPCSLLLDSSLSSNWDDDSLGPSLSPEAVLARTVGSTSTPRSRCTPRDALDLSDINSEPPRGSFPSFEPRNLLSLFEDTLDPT

Chain of Cyclin-dependent kinase 17 (Homo sapiens) (Q00537 whole entry, looked up): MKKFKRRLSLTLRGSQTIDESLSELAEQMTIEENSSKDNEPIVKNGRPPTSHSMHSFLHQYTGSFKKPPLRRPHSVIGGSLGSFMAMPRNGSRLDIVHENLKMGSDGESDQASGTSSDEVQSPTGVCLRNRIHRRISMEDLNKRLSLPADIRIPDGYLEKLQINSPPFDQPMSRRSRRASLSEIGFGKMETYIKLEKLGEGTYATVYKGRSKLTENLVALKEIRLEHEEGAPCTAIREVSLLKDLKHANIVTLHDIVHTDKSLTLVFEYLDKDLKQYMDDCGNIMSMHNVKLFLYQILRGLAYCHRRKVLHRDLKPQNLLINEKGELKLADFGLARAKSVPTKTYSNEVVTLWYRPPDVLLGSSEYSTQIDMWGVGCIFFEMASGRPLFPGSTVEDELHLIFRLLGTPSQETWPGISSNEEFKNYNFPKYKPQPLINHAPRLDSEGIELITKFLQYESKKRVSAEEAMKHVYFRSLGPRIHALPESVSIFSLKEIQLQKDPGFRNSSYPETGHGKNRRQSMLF

SMILES: C=CC(=O)Nc1ccc(C(=O)Nc2[nH]nc3c2CN(C(=O)N[C@H](CN(C)C)c2ccccc2)C3(C)C)cc1
- % of engagement [1]: 12.8%

SMILES: Cc1cc([C@@H](C)Nc2ccccc2C(=O)O)c2nc(N3CCOCC3)cc(=O)n2c1 [AZD-6482]
- % of control [2]: 85%

SMILES: CC[C@@H]1[C@H](F)C(=O)N[C@@H]1COc1nccc2cc(C(N)=O)c(OC)cc12 [ZIMLOVISERTIB]
- % of inhibition [3]: -7.6%
- % of inhibition [4]: 64.4%

SMILES: COc1cc(Nc2nc(C)cc(-c3cnn4nc(OC)ccc34)n2)cc(C(F)(F)F)c1
- % of control [5]: 96%

SMILES: Cc1cc(F)c(C(=O)Nc2cccc(-c3nncn3C(C)C)n2)cc1-n1cnc(C2CC2)c1
- % of control [6]: 96%

SMILES: COCC(=O)NC/C=C/c1ccc2ncnc(Nc3ccc(Oc4ccc(C)nc4)c(C)c3)c2c1 [CP-724714]
- % of control [7]: 94%

SMILES: O[C@H]1CC[C@H](Nc2ncc3nc(Nc4c(F)cc(F)cc4F)n([C@H]4CCOC4)c3n2)CC1
- % of control [8]: 92%
